{"source": "patent US7795252B2", "about": "“Rapamycin analogues and the uses thereof in the treatment of neurological, proliferative, and inflammatory disorders” (Pfizer Inc., priority 2004, dated 2010)", "key": {"[1]": {"system": "Mesencephalic dopaminergic neuron cultures", "experiment": "dopaminergic (3H-dopamine) uptake assay after MPP+ exposure", "format": "cell-based", "conditions": "Neuron, rat E15 mesencephalic dopaminergic neurons, read-out: EC50 in dopaminergic uptake assays", "description": "Mesencephalic dopaminergic neuron cultures were prepared as described in Pong et al., J. Neurochem. 69: 986-994, 1997, which is incorporated herein by reference in its entirety. Embryonic day 15 (E15) rat fetuses were collected and dissected in ice-cold phosphate-buffered saline (PBS). The ventral piece of tissue compromising the mesencephalic dopaminergic region was dissected out. Dissected pieces of tissue were pooled together and transferred to an enzymatic dissociation medium containing 20 IU/mL papain in Earle's balanced salt solution (Worthington Biochemical, Freehold, N.J., USA) and incubated for 60 minutes at 37° C. After enzymatic dissociation, the papain solution was aspirated and the tissue mechanically triturated with a fire-polished glass Pasteur pipette in complete medium (equal volumes of minimum essential medium (MEM) and F-12 nutrient mixture (GibcoBRL) supplemented with 0.1 mg/mL apotransferrin and 2.5 μg/mL insulin) containing 2,000 IU/mL DNase and 10 mg/mL ovomucoid protease inhibitor.\nFor dopamine uptake experiments, single-cell suspensions in complete media were seeded on poly-L-ornithine and laminin coated 24-well plates. The cultures were maintained for seven days prior to experimentation. Cultures were pretreated with various concentrations of the compound for 24 hours, then exposed to 10 mM MPP+ for 1 hour. Following the 1 hour incubation, media was exchanged three times and fresh compound was added for an additional 48 hours.\nAfter 48 hours growth of mesencephalic dopaminergic neuron cultures following MPP+ exposure, high-affinity 3H-dopamine uptake was performed using a modified method described by Prochiantz et al., Nature 293: 570-572, 1981, which is incorporated herein by reference. Cultures were washed with pre-warmed PBS containing 5.6 mM glucose and 1 mM ascorbic acid. Cultures were then incubated for 15 minutes at 37° C. with 50 nM 3H-dopamine (31 Ci/mmol, DuPont-NEN, Wilmington, Del., USA). The cultures were washed twice with buffer and lysed with 0.5 N NaOH. The lysate was transferred to a scintillation vial containing Ultima Gold scintillation cocktail and radioactivity was determined with a liquid scintillation counter. Alternatively, culture lysates can be washed twice with buffer, incubated for 2 hours at room temperature with Optiphase Supermix scintillation cocktail (Wallac Scintillation Products, Gaithersburg, Md., USA), and radioactivity measured with a liquid scintillation counter."}, "[2]": {"system": "Dissociated cortical neuron cultures", "experiment": "cortical neuron assay (neurite outgrowth)", "format": "cell-based", "conditions": "Cortical neurone, rat E15 cortical neurons, compound for 72 hours, read-out: EC50 in cortical neuron assays", "description": "Dissociated cortical neuron cultures were prepared as previously described (Pong et al., 2001). Briefly, embryonic day 15 rat fetuses were collected and dissected in ice-cold PBS. Dissected cortices were pooled together and transferred to an enzymatic dissociation medium containing papain. After 30 minutes, the tissue was mechanically triturated with a fire-polished glass Pasteur pipette. Single-cell suspensions in complete media were seeded on poly-L-ornithine and laminin coated 96-well plates. After 24 hours, cultures were treated with various concentrations of compound for 72 hours. The cultures were then fixed and stained with an anti-tubulin primary antibody (TUJ-1) and a fluorescent-tagged secondary antibody. Neurite outgrowth was determined by using the Enhanced Neurite Outgrowth (ENO) algorithm with the Cellomics ArrayScan and expressed as average neurite length or total neurite length per cell."}, "[3]": {"system": "breast tumor cell line MDA468 (PTEN-mutated)", "experiment": "cell-based proliferation assay (MTS), MDA468", "description": "(§1) In this assay, a cell-based proliferation assay was performed to evaluate the compounds of the invention in inhibiting growth of cells including the breast tumor cell line MDA468 (PTEN-mutated) ATCC No. HTB-132 or prostate tumor cell line LNCap (PTEN-mutated) ATCC CRL-1740. • (i) On day one, cells were plated in 96-well culture plates. • (ii) On day two, compounds were added to cells at a predetermined concentration. • (iii) On day five, cell proliferation was measured by standard MTS assay protocol as described in S A O'Toole et al., Cancer Detection and Prevention, 27(1), 2003. Results were recorded by A490 absorbance using a 96-well format platereader. • (iv) The MTS results (A490 units) from compound-treated wells were then calculated as % control growth relative to the control (untreated) wells on the same culture plate."}, "[4]": {"system": "Spinal cord neuron cultures", "experiment": "spinal cord neuron assay", "format": "cell-based", "conditions": "rat E15 spinal cord neurons, compound for 72 h, read-out: EC50 in spinal cord neuron assays", "description": "Spinal cord neuron cultures were prepared from embryonic day 15 (E15) rat embryos (Sprague-Dawley, Charles River Laboratories, Wilmington, Mass.). The embryos were collected and their spinal cords were removed in ice-cold phosphate-buffered saline (PBS) without Ca^2+ and Mg^2+. Dissected pieces of spinal cord tissue were pooled together and transferred to an enzymatic dissociation media containing 20 IU/mL papain in Earle's balanced salt solution (Worthington Biochemical, Freehold, N.J.) and incubated for 30 minutes at 37° C. After enzymatic dissociation, the papain solution was aspirated and the tissue mechanically triturated with a fire-polished Pasteur pipette in complete media [Neurobasal Medium with B-27 supplement (Gibco, Grand Island, N.Y.), 100 IU/mL penicillin, 100 μg/mL streptomycin, 3.3 μg/mL aphidicolin, 0.5 mM glutamate] containing 2,000 IU/mL DNase and 10-mg/mL ovomucoid protease inhibitor. Single-cell suspensions in complete media were plated on pre-coated poly-L-ornithine/laminin 96-well plates (Becton-Dickinson, Bedford, Mass.) at a density of 1.0×10^4 cells/well. Spinal cord neurons were maintained for 24 h then exposed to vehicle or various concentrations of compound for 72 h."}, "[5]": {"system": "human CD4+ T cells", "experiment": "Anti-CD3/-CD28 stimulation and IL-2 re-stimulation assay", "format": "cell-based", "description": "(§2) In the following assays, human CD4+ T cells were purified by negative selection from peripheral blood lymphocytes using RosetteSep as per manufacture's instructions (StemCell Technologies, Inc. Vancouver, British Columbia).\nTosyl-activated magnetic microspheres (Dynal, Great Neck, N.Y.) were coated with anti-CD3 Ab (1 μg/10^7 microspheres), and anti-CD28Ab (0.5 μg/10^7 microspheres) as described in Blair et al. J. Immunol., 160:12, 1998. Murine IgG was used to saturate the binding capacity of the microspheres (total protein=5 μg/10^7 microspheres). Protein-coated microspheres were added to purified CD4+ T cells (2×10^6 cells/mL, ratio 1 bead: 1 cell) and activated for 72 hours in RPMI, 10% fetal calf serum, 2 mM glutamine media. Cells were harvested, washed, and cultured overnight in fresh media and re-stimulated with IL-2 as described in Bennett et al., J. Immunol. 170:711, 2003. Briefly, overnight rested cells were recounted, plated (10^5 cells/well) in flat-bottomed 96 well microtiter plates and stimulated with 1 ng/mL human IL-2 (R&D Systems, Minneapolis, Minn.) in the presence of increasing concentrations of compound. Seventy-two hours after culture re-stimulation, plates were pulsed with 1 μCi/well tritiated thymidine and incubated for a 6-16 hour period."}, "[6]": {"system": "human CD4+ T cells", "experiment": "PMA/ionomycin activation assay", "format": "cell-based", "conditions": "CD4+ T cells stimulated with PMA and ionomycin, tritiated thymidine incorporation, read-out: EC50, inhibition of proliferation", "description": "as §2\nProliferation of the compounds was determined using this assay. CD4+ T cells (5×10^5 cells/well) were plated in flat bottomed 96 well microtiter plates in RPMI, 10% fetal calf serum, 2 mM glutamine media and stimulated with PMA (10 ng/mL) and ionomycin (200 ng/mL) in the presence of increasing concentration of compound. Seventy-two hours after activation, 100 μL of culture media was collected for IL-2 determination, an additional 100 μL fresh media was added to each well and cultures labeled with tritiated thymidine (1 μCi/well) for 6 hours. Cultures were harvested and tritiated thymidine incorporation (count per minute, CPM) assessed using a Trilux (Perkin Elmer, Shelton, Conn.). IL-2 production was determined using an ELISA as per manufacture's instructions (R&D Systems, Minneapolis, Minn.)."}, "[7]": {"system": "prostate tumor cell line LNCap (PTEN-mutated)", "experiment": "cell-based proliferation assay (MTS), LNCap", "conditions": "Homo sapiens", "description": "as §1"}}}
{"smiles": "CO[C@H]1C[C@@H]2CC[C@@H](C)[C@@](O)(O2)C(=O)C(=O)N2CCCC[C@H]2C(=O)O[C@H]([C@H](C)C[C@@H]2CC[C@@H](O)[C@H](OC)C2)CC(=O)[C@H](C)/C=C(\\C)[C@@H](O)[C@@H](OC)C(=O)[C@H](C)C[C@H](C)[C@@H]2C=C[C@H](/C=C/1C)ON2c1ccccc1", "note": "[Example 1, 9,27-dihydroxy-3-{2-[4-hydroxy-3-methoxycyclohexyl]-1-methylethyl}-10,21-dimethoxy-6,8,12,14,20,26-hexamethyl-37-phenyl-4,9,10,12,13,14,15,18,21,22,23,24,25,26,27,32,33,34,34a-nonadecahydro-3H-23,27-epoxy-18,15-(epoxyimino)pyrido[2,1-c][1,4]oxazacyclohentriacontine-1,5,11,28,29(6H,31H)-pentone]", "values": [{"measurement": "EC50", "setting": "[1]", "value": "< 1", "unit": "µM"}, {"measurement": "EC50", "setting": "[2]", "value": "< 1", "unit": "µM"}, {"measurement": "IC50", "setting": "[3]", "value": "< 0.01", "unit": "µM"}, {"measurement": "EC50", "setting": "[4]", "value": "< 1", "unit": "µM"}, {"measurement": "IC50", "setting": "[5]; CD4+ T cells activated with anti-CD3/anti-CD28, re-stimulated with 1 ng/mL human IL-2, read-out: IC50, inhibition of IL-2 production", "value": "< 1", "unit": "µM"}, {"measurement": "IL-2 production compared with rapamycin and CCI-779", "setting": "[5]; CD4+ T cells, IL-2 re-stimulation", "value": "commensurate"}, {"measurement": "EC50", "setting": "[6]", "value": "0.2 to 4.9", "unit": "µM"}, {"measurement": "IC50", "setting": "[7]", "value": "< 0.01", "unit": "µM"}]}
